How the values were obtained:
Assay type in all cases: cell-based, human
[1] = system: CCRF-CEM; experiment: NCI in vitro cancer screen, Leukemia
[2] = system: HL-60 (TB); experiment: NCI in vitro cancer screen, Leukemia; details: HL-60 (TB)
[3] = system: K-562; experiment: NCI in vitro cancer screen, Leukemia; details: K-562
[4] = system: RPMI-8226; experiment: NCI in vitro cancer screen, Leukemia; details: RPMI-8226
[5] = system: A549/ATCC; experiment: NCI in vitro cancer screen, Non-Small Cell Lung Cancer
[6] = system: EKVX; experiment: as above
[7] = system: HOP-62; experiment: as above; details: HOP-62
[8] = system: NCI-H322M; experiment: as above
[9] = system: COLO 205; experiment: NCI in vitro cancer screen, Colon Cancer; details: COLO 205
[10] = system: HCC-2998; experiment: NCI in vitro cancer screen, Colon Cancer; details: HCC-2998
[11] = system: HCT-116; experiment: NCI in vitro cancer screen, Colon Cancer; details: HCT-116
[12] = system: HCT-15; experiment: NCI in vitro cancer screen, Colon Cancer; details: HCT-15
[13] = system: HT29; experiment: NCI in vitro cancer screen, Colon Cancer; details: HT29
[14] = system: SF-268; experiment: NCI in vitro cancer screen, CNS Cancer; details: SF-268
[15] = system: SNB-75; experiment: NCI in vitro cancer screen, CNS Cancer; details: SNB-75
[16] = system: M14; experiment: NCI in vitro cancer screen, Melanoma; details: M14
[17] = system: SK-MEL-2; experiment: NCI in vitro cancer screen, Melanoma; details: SK-MEL-2
[18] = system: SK-MEL-5; experiment: NCI in vitro cancer screen, Melanoma; details: SK-MEL-5
[19] = system: UACC-62; experiment: NCI in vitro cancer screen, Melanoma; details: UACC-62
[20] = system: OVCAR-3; experiment: NCI in vitro cancer screen, Ovarian Cancer; details: Homo sapiens, OVCAR-3
[21] = system: OVCAR-4; experiment: NCI in vitro cancer screen, Ovarian Cancer; details: OVCAR-4
[22] = system: OVCAR-5; experiment: NCI in vitro cancer screen, Ovarian Cancer; details: OVCAR-5
[23] = system: OVCAR-8; experiment: NCI in vitro cancer screen, Ovarian Cancer; details: OVCAR-8
[24] = system: ADR-RES (NCI/ADR-RES); experiment: NCI in vitro cancer screen, Ovarian Cancer; details: Homo sapiens, NCI/ADR-RES
[25] = system: SK-OV-3; experiment: NCI in vitro cancer screen, Ovarian Cancer; details: SK-OV-3
[26] = system: 786-0; experiment: NCI in vitro cancer screen, Renal Cancer; details: 786-0
[27] = system: ACHN; experiment: NCI in vitro cancer screen, Renal Cancer
[28] = system: RXF-393; experiment: NCI in vitro cancer screen, Renal Cancer; details: Homo sapiens, RXF-393
[29] = system: DU-145; experiment: NCI in vitro cancer screen, Prostate Cancer; details: DU-145
[30] = system: HS 578T; experiment: NCI in vitro cancer screen, Breast Cancer; details: Homo sapiens
[31] = system: T-47D; experiment: NCI in vitro cancer screen, Breast Cancer
[32] = Homo sapiens, read-out: LC50 (the source's name)
[33] = read-out: LC50 (the source's name)

COc1cc(/C=C/c2cc(O)cc(OC)c2CC=C(C)C)ccc1O [USYDS1, (E)-2-(3-methyl-2-buten-1-yl)-4′,5-dihydroxy-3,3′-dimethoxystilbene]
TGI [1]: 24.6 µM | GI50 ([1]; Homo sapiens): 0.35 µM | CC50 [1, 32]: > 100 µM | TGI [2]: 0.06 µM | GI50 ([2]; Homo sapiens): 0.02 µM | CC50 [2, 32]: 68.9 µM | GI50 ([3]; Homo sapiens, K562): 0.04 µM | CC50 ([3]; Homo sapiens, K562, read-out: LC50 (the source's name)): > 100 µM | TGI [3]: 11.7 µM | GI50 ([4]; Homo sapiens): 0.11 µM | CC50 [4, 32]: > 100 µM | TGI [4]: 14.8 µM | TGI [5]: 11.3 µM | GI50 ([5]; Homo sapiens): 0.5 µM | CC50 [5, 32]: 40.3 µM | TGI [6]: 24.3 µM | GI50 ([6]; Homo sapiens): 10.8 µM | CC50 [6, 32]: 54.4 µM | TGI [7]: 16.0 µM | GI50 ([7]; Homo sapiens): 0.44 µM | CC50 [7, 32]: 42.2 µM | TGI [8]: 25.7 µM | GI50 ([8]; Homo sapiens): 11.8 µM | LC50 (50% lethal concentration) ([8]; Homo sapiens): 55.9 µM | TGI [9]: 16.1 µM | GI50 ([9]; Homo sapiens): 3.86 µM | CC50 [9, 32]: 42.6 µM | TGI [10]: 11.5 µM | GI50 ([10]; Homo sapiens): 1.07 µM | CC50 [10, 32]: 35.8 µM | TGI [11]: 11.1 µM | GI50 ([11]; Homo sapiens): 0.3 µM | LC50 (concentration killing 50% of cells) ([11]; Homo sapiens): 40.4 µM | TGI [12]: 16.1 µM | GI50 ([12]; Homo sapiens): 0.05 µM | CC50 [12, 32]: > 100 µM | TGI [13]: 15.3 µM | GI50 ([13]; Homo sapiens, HT-29): 4.73 µM | CC50 ([13]; Homo sapiens, HT-29, read-out: LC50 (the source's name)): 44.4 µM | GI50 ([14]; Homo sapiens): 0.25 µM | CC50 [14, 32]: 50.2 µM | TGI [14]: 14.1 µM | GI50 ([15]; Homo sapiens): 0.03 µM | CC50 [15, 32]: 72 µM | TGI [15]: 20.2 µM | GI50 ([16]; Homo sapiens): 0.04 µM | CC50 [16, 32]: 44 µM | TGI [16]: 13.9 µM | GI50 ([17]; Homo sapiens): 0.32 µM | LC50 ([17]; Homo sapiens): 38 µM | TGI [17]: 10.6 µM | GI50 ([18]; Homo sapiens): 0.05 µM | CC50 [18, 32]: 5.99 µM | TGI [18]: 0.75 µM | GI50 ([19]; Homo sapiens): 1.62 µM | CC50 [19, 32]: 46.6 µM | TGI [19]: 18.3 µM | GI50 [20]: 0.26 µM | CC50 [20, 33]: 37.3 µM | GI50 ([21]; Homo sapiens): 0.58 µM | CC50 [21, 32]: 52 µM | TGI [21]: 18.4 µM | GI50 ([22]; Homo sapiens): 6 µM | CC50 [22, 32]: 55.3 µM | TGI [22]: 21.4 µM | GI50 ([23]; Homo sapiens): 0.08 µM | CC50 [23, 32]: 50 µM | TGI [23]: 11.7 µM | GI50 [24]: 0.03 µM | CC50 [24, 33]: 70.7 µM | GI50 ([25]; Homo sapiens): 0.19 µM | CC50 [25, 32]: 34.7 µM | TGI [25]: 11.6 µM | TGI [26]: 14.0 µM | GI50 ([26]; Homo sapiens): 0.48 µM | LC50 (50% net cell kill) ([26]; Homo sapiens): > 100 µM | TGI [27]: 14.0 µM | GI50 ([27]; Homo sapiens): 0.07 µM | CC50 [27, 32]: 44.6 µM | GI50 [28]: 0.03 µM | CC50 [28, 33]: 39.1 µM | TGI [29]: 12.7 µM | GI50 ([29]; Homo sapiens): 0.06 µM | CC50 [29, 32]: 38.6 µM | GI50 [30]: 0.02 µM | CC50 [30, 33]: > 100 µM | TGI [31]: 19.8 µM | GI50 ([31]; Homo sapiens, T47D): 0.72 µM | CC50 ([31]; Homo sapiens, T47D, read-out: LC50 (the source's name)): 67.4 µM
